Data as given in patent publication US8735575B2, “Phenoxazine derivatives and methods of use thereof” (Washington University, priority 2010, dated 2014).
Like-named read-outs stand apart in the source and are kept apart here.

Assays:
[1] = physchem; assay type: physicochemical
Description: (§1) The logPoct value is widely used in quantitative structure-activity relationship (QSAR) studies and rational drug design as a measure of molecular hydrophobicity. Hydrophobicity affects drug absorption, bioavailability, hydrophobic drug-receptor interactions, metabolism of molecules, and their toxicity. […] The mixture will be incubated with agitation for 30 min until ionic and non-ionic forms of test compound reach equilibrium. Two layers will be separated by centrifugation. Test compound's concentrations in octanol and water layers will be determined by UV/VIS spectrophotometry. The logPoct value will be calculated from log(concentration in n-octanol fraction/concentration in water fraction). Experiments will be repeated at least 3 times with triplicated samples.

[2] = biological target: T1, CAA (Homo sapiens, UniProt P05067); test: In situ binding assay on CAA in fixed brain sections of Tg2576 mice; set-up: species or system mouse (Tg2576); Binding affinity in situ, Bmax on CAA: unit not given here; conditions: for Kd: read-out: Binding affinity in situ, KD (nM) on CAA
[3] = biological target: T1, CAA; test: Binding affinities for CAA on isolated vessels determined by fluorescent binding; conditions: read-out: Binding affinity (nM) Ki
Description: The isolation of cerebral vessels for biochemical analysis will be performed as described (78, 98). […] After the cerebellum is removed, the brain will be homogenized in fivefold excess of vessel buffer. An equal volume of 26% dextran will be added, and the tissue will be centrifuged at 6200×g for 30 min at 4° C. The resulting vessels form a pellet, whereas the parenchymal “vessel-free” material forms a solid, compact disc at the top of the solution. The […] will be resuspended in vessel buffer and passed over a 40-μm nylon mesh to capture vessels. Vessel and parenchymal material will be lysed in 5 M guanidine, 50 mM Tris, pH 8, with protease inhibitor cocktail (Roche) for 3 hr.

[4] = cited from earlier work; for Lipophilicity Poct: data from the previous report (Klunk et al. 2002)
[5] = tested on: cerebrovascular Aβ deposits; test: In vivo live imaging of CAA amyloid deposits through closed cranial window; set-up: species or system mouse (Tg2576); conditions: 16-month old Tg2576 mice, resorufin 2 μM
Description: FIG. 4 depicts in vivo live imaging of CAA amyloid deposits through closed cranial window. A,B. Closed cranial window was prepared on the right parietal bone of 16-month-old Tg2576 mice. Leptomeningeal arterioles (B) were subjected to live imaging using a fluorescent microscope. […] Scale bars: in C-E: 250 μm, in E: 100 μm.
as §1

[6] = biological target: neuritic plaques (Homo sapiens, UniProt P05067); test: In situ binding assay on neuritic plaques in fixed brain sections of Tg2576 mice; set-up: species or system mouse (Tg2576); conditions: for Kd: in situ, Tg2576 brain sections, read-out: Binding affinity in situ, KD (nM) on Plaques
Source text: (§2) Tg2576 mice are a well characterized mouse model of AD and CAA. They develop congophilic Aβ aggregates within neuritic plaques and leptomeningeal and cortical penetrating arteries at 11 months of age (Hsiao et al., 1996; Kawarabayashi et al., 2001; Fryer et al., 2005; Han et al., 2008).
(§3) The Ki values for CAA vs. neuritic plaques will be calculated utilizing the fluorescent amyloid-ligand methoxy-X34 and fluorescent microscopic method. […] Tissue sections (3 sections per reaction) will be then mounted and coverslipped. Photographs of methoxy-X34 binding images will be taken using a Nikon fluorescent microscope. The fluorescent intensity on cerebral amyloid deposits and neuritic plaques will be separately quantified using Image J software. Finally, Ki values will be calculated by plotting % bound vs. log concentrations of competitors followed by non-linear regression using the GraphPad Prism software. The maximum binding will be obtained from the methoxy-X34 intensity in the absence of competitors, while non-specific binding will be detected by the fluorescent intensity in brain tissues incubated without methoxy-X34.
(§4) Tg2576 mice or littermate controls at 15 months of age will be perfused with phosphatebuffered saline (PBS) for 5 min. Brains will be removed, fixed in 4% paraformaldehyde, and preserved in 30% glucose-PBS solution at 4° C. Brains will be coronally sectioned using a microtome and kept in cryoprotectant solution at −20° C. To label amyloid deposits, brain sections (3 sections per reaction) will be permeabilized with PBS containing 0.25% Triton X-100 for 20 min at room temperature, followed by incubation with 1 μM methoxy-X34 in the presence or absence of competitors at various concentrations (10-9-10-6 M). Sections will be subjected to fluorescent microscopy using a Nikon Eclipse C600 microscope. The fluorescent intensity of methoxy-X34 in vessels and neuritic plaques will be quantified using the ImageJ software. The binding affinity (Ki) will be calculated using the GraphPad Prism software.

[7] = tested on: CAA vs. neuritic plaques; test: Fluorescent co-staining of fixed brain sections of Tg2576 mice; set-up: species or system mouse (Tg2576); conditions: aged Tg2576 mice, FIG. 1
Source text: as §2

[8] = tested on: CAA vs. neuritic plaques; test: Staining of paraffin-embedded cortical sections of a human AD patient; conditions: autopsied AD patient cortical sections, FIG. 3
Source text: as §2

[9] = normal mice, cited from earlier work
[10] = biological target: T1, CAA; test: In situ binding assay on CAA in fixed brain sections of Tg2576 mice; set-up: species or system mouse (Tg2576)
Source text: as §2, §3, §4

O=c1ccc2nc3ccc(OCc4ccccc4)cc3oc-2c1 [Benzyloxy-resorufin]
logP [1]: 2.21 | Binding affinity in situ, Bmax on CAA [2]: 410

CCOc1ccc2nc3ccc(=O)cc-3oc2c1 [Ethoxy-resorufin]
Ki [3]: 262 nM | logP [1]: 2.35 | Binding affinity in situ, Bmax on CAA [2]: 107 | Kd [2]: 247 nM

COc1cc(/C=C/c2ccc(O)cc2)ccc1/C=C/c1ccc(O)cc1 [Methoxy-X04, reference compound]
Lipophilicity Poct [4]: ^b2.6 | fluorescent labeling in live mice, topical application through cranial window [5]: present in both cerebral arteries and parenchymal neuritic plaques

[11CH3]Oc1ccc(C=Cc2ccc(C=Cc3ccc(O)c(C(=O)O)c3)cc2)cc1C(=O)O [Methoxy-X34]
Lipophilicity Poct [4]: ^b0.19

COc1ccc2nc3ccc(=O)cc-3oc2c1 [Methoxy-resorufin]
logP [1]: 1.95

CCCCCOc1ccc2nc3ccc(=O)cc-3oc2c1 [Pentoxy-resorufin]
logP [1]: 2.34

CC(=O)Oc1ccc2nc3ccc(=O)cc-3oc2c1 [Resorufin acetate]
logP [1]: 2.79

O=c1ccc2nc3ccc(O)cc3oc-2c1 [Resorufin]
binding to neuritic plaques ([6]; in situ binding assay at a concentration of 160 μM): negligible | staining of CAA vs. neuritic plaques [7]: CAA>>>neuritic plaques | logP [1]: 0.387 | staining of 3D6-positive arterioles vs. neuritic plaques [8]: prominent in 3D6-positive cerebral arterioles but was rarely seen in 3D6-positive neuritic plaques | Binding affinity in situ, Bmax on CAA [2]: 1523/ 885

C#COc1ccc2nc3ccc(=O)cc-3oc2c1 [WC-5-1]
Kd [6]: > 4000 nM | Lipophilicity Poct [1]: 2.407 | Binding affinity in situ, Bmax on CAA [2]: 485 | Kd [2]: 173 nM

O=c1ccc2nc3ccc(OCCF)cc3oc-2c1 [WC-5-2]
Kd [6]: > 4000 nM | Lipophilicity Poct [1]: 2.774 | Binding affinity in situ, Bmax on CAA [2]: 869 | Kd [2]: 235 nM

O=c1ccc2nc3ccc(OCc4cn(CCF)nn4)cc3oc-2c1 [WC-5-3]
logP [1]: 2.04 | Binding affinity in situ, Bmax on CAA [2]: 527

COc1cccc(COc2ccc3nc4ccc(=O)cc-4oc3c2)c1 [WC-5-4]
logP [1]: 2.97 | Binding affinity in situ, Bmax on CAA [2]: 699

COc1ccc(COc2ccc3nc4ccc(=O)cc-4oc3c2)cc1 [WC-5-5]
logP [1]: 1.91 | Binding affinity in situ, Bmax on CAA [2]: 135

O=c1ccc2nc3ccc(OCc4ccc(OCCF)cc4)cc3oc-2c1 [WC-5-7]
logP [1]: 3.42 | Binding affinity in situ, Bmax on CAA [2]: 1304

CC(=O)OCCOc1ccc2nc3ccc(=O)cc-3oc2c1 [WC-5-8]
logP [1]: 2.09

O=c1ccc2nc3ccc(OCCBr)cc3oc-2c1 [WC-5-9]
logP [1]: 2.2

O=c1ccc2nc3ccc(OCc4ccc(I)cc4)cc3oc-2c1 [WC-5-31]
Lipophilicity Poct ([1]; 30 min): >4.89??

[11CH3]Nc1ccc(-c2nc3ccc(O)cc3s2)cc1 [[11C]PIB]
brain uptake at 2 min after injection ([9]; 2 min): 3.2 % ID/g | brain level after washout at 60 min ([9]; 60 min): 0.21 % ID/g | fraction in the brain cleared within 60 min ([9]; within 60 min): 93%

[11CH3]Oc1cc(C=Cc2ccc(O)cc2)ccc1C=Cc1ccc(O)cc1 [[11C]methoxy-X04]
logPoct ([4]; cited study (96)): 2.6

CCOc1ccc2nc3ccc(=O)cc-3oc2c1 [ethyl-resorufin]
binding affinity for CAA deposits, in words [10]: low nanomolar range | lipophilicity, in words [1]: moderate lipophilicity

methoxyphenyl-resorufin
binding affinity for CAA deposits, in words [10]: low nanomolar range | lipophilicity, in words [1]: moderate lipophilicity

phenyl-resorufin
binding affinity for CAA deposits, in words [10]: low nanomolar range | lipophilicity, in words [1]: moderate lipophilicity
